For eleven molecules, MIC and inhibition results are on record in ChEMBL document CHEMBL3045102, “Antibacterial, antifungal and antioxidant activity of some new water-soluble -diketones” (2013).

Common to all, as to assay type: functional
One assay has as its system Candida albicans. The assay is described as follows: Antifungal activity against Candida albicans ATCC 10231 after 48 hr by turbidity based microplate metohd. Conditions: ATCC 10231, 48 h.
The next assay deals with Nakaseomyces glabratus. The experiment in a line: Antifungal activity against Candida glabrata ATCC 36583 after 48 hr by turbidity based microplate metohd. The settings on record: ATCC 36583, 48 h.
The subject of the next assay is Escherichia coli. The assay is described as follows: Antibacterial activity against Escherichia coli ATCC 25922 after 24 hr by spectrophotometric method. The settings on record: ATCC 25922, 24 h.
For another assay, the system named is Staphylococcus aureus. The experiment in a line: Antibacterial activity against Staphylococcus aureus ATCC 25923 after 24 hr by spectrophotometric method. Conditions: ATCC 25923, 24 h.
The subject of a further assay is Bacillus subtilis. The experiment in a line: Antibacterial activity against Bacillus subtilis ATCC 6633 after 24 hr by spectrophotometric method. Conditions: ATCC 6633, 24 h.
The test system of a further assay is Pseudomonas aeruginosa. The assay is described as follows: Antibacterial activity against Pseudomonas aeruginosa ATCC 27853 after 24 hr by sepctrophotometric method. Conditions: ATCC 27853, 24 h.
In assay [1] the test system is Radical scavenging activity. The experiment in a line: Antioxidant activity assessed as decrease in DPPH free radical level after 20 min by DPPH assay method. Also on record: concentration or dose not given beside the values.

≈ marks a conversion by molar mass, not a printed value.

Take `OC(Cn1cncn1)(Cn1cncn1)c1ccc(F)cc1F` [FLUCONAZOLE]: the minimal inhibitory concentration (MIC) in the assay on Candida albicans and against Nakaseomyces glabratus was 10 µg/mL (≈ 32.7 µM) throughout.
Turning to `O=C(CC(=O)c1cc(Cl)c(O[C@@H]2O[C@H](CO)[C@@H](O)[C@H](O)[C@H]2O)cc1O)c1cccnc1`, the minimum inhibitory concentration (MIC) (in general, the lowest concentration found to suppress growth) was 5000 µg/mL (≈ 11000 µM) against Escherichia coli; 5000 µg/mL (≈ 11000 µM) in the assay with Staphylococcus aureus; 10000 µg/mL (≈ 22000 µM) against Candida albicans; 300 µg/mL (≈ 661 µM) in the assay with Bacillus subtilis; 5000 µg/mL (≈ 11000 µM) with Pseudomonas aeruginosa; 10000 µg/mL (≈ 22000 µM) in the assay with Nakaseomyces glabratus. Besides, the inhibition (as a rule, how much of the control response was suppressed) in assay [1] is 79.5%.
With `O=C(CC(=O)c1ccc(O[C@@H]2O[C@H](CO)[C@@H](O)[C@H](O)[C@H]2O)cc1O)c1ccccn1`, the minimal inhibitory concentration (MIC) was determined as 70 µg/mL (≈ 167 µM) against Escherichia coli; 150 µg/mL (≈ 358 µM) against Staphylococcus aureus; 2500 µg/mL (≈ 5960 µM) in the assay on Candida albicans; 300 µg/mL (≈ 715 µM) against Bacillus subtilis; 19 µg/mL (≈ 45.3 µM) in the assay with Pseudomonas aeruginosa; 5000 µg/mL (≈ 11900 µM) in the assay with Nakaseomyces glabratus. Also, in assay [1], the inhibition came to 79%.
On to `O=C(CC(=O)c1cc(Cl)c(O[C@@H]2O[C@H](CO)[C@@H](O)[C@H](O)[C@H]2O)cc1O)c1cccs1`, for which the MIC was determined as 5000 µg/mL (≈ 10900 µM) against Escherichia coli; 300 µg/mL (≈ 654 µM) against Staphylococcus aureus; 5000 µg/mL (≈ 10900 µM) in the assay on Candida albicans; 625 µg/mL (≈ 1360 µM) in the assay with Bacillus subtilis; 30 µg/mL (≈ 65.4 µM) in the assay on Pseudomonas aeruginosa; 150 µg/mL (≈ 327 µM) in the assay on Nakaseomyces glabratus. For the same molecule, the inhibition in assay [1] was found to be 81.2%.
As for `CC1(C)S[C@@H]2[C@H](NC(=O)[C@H](N)c3ccccc3)C(=O)N2[C@H]1C(=O)O` [AMPICILLIN], the MIC against Escherichia coli came to 10 µg/mL (≈ 28.6 µM); against Staphylococcus aureus it was 19 µg/mL (≈ 54.4 µM); in the assay on Bacillus subtilis it was 5 µg/mL (≈ 14.3 µM); against Pseudomonas aeruginosa it was 5 µg/mL (≈ 14.3 µM).
Turning to `O=C(CC(=O)c1ccc(O[C@@H]2O[C@H](CO)[C@@H](O)[C@H](O)[C@H]2O)cc1O)c1ccco1`, the minimum inhibitory concentration (MIC) with Escherichia coli worked out at 2500 µg/mL (≈ 6120 µM); against Staphylococcus aureus it was 625 µg/mL (≈ 1530 µM); with Candida albicans, 5000 µg/mL (≈ 12200 µM); against Bacillus subtilis, 150 µg/mL (≈ 367 µM); in the assay with Pseudomonas aeruginosa it was 5000 µg/mL (≈ 12200 µM); against Nakaseomyces glabratus, 5000 µg/mL (≈ 12200 µM). The inhibition in assay [1] was 84.3%.
As to `O=C(CC(=O)c1ccc(O[C@@H]2O[C@H](CO)[C@@H](O)[C@H](O)[C@H]2O)cc1O)c1cccs1`, the MIC was 1250 µg/mL (≈ 2950 µM) against Escherichia coli; 300 µg/mL (≈ 707 µM) in the assay on Staphylococcus aureus; 2500 µg/mL (≈ 5890 µM) against Candida albicans; 150 µg/mL (≈ 353 µM) with Bacillus subtilis; 150 µg/mL (≈ 353 µM) with Pseudomonas aeruginosa; 5000 µg/mL (≈ 11800 µM) in the assay on Nakaseomyces glabratus. In assay [1], the inhibition was found to be 74.2%.
For the molecule `O=C(CC(=O)c1cc(Cl)c(O[C@@H]2O[C@H](CO)[C@@H](O)[C@H](O)[C@H]2O)cc1O)c1ccco1`, the minimal inhibitory concentration (MIC) was found to be 70 µg/mL (≈ 158 µM) in the assay on Escherichia coli; 150 µg/mL (≈ 339 µM) in the assay with Staphylococcus aureus; 2500 µg/mL (≈ 5650 µM) in the assay on Candida albicans; 300 µg/mL (≈ 678 µM) in the assay with Bacillus subtilis; 19 µg/mL (≈ 42.9 µM) in the assay on Pseudomonas aeruginosa; 5000 µg/mL (≈ 11300 µM) with Nakaseomyces glabratus. For the same molecule, the inhibition in assay [1] was determined as 77%.
Take `O=C1O[C@H]([C@@H](O)CO)C(O)=C1O`: in assay [1], the inhibition turned out to be 98%.
With `O=C(CC(=O)c1ccc(O[C@@H]2O[C@H](CO)[C@@H](O)[C@H](O)[C@H]2O)cc1O)c1cccnc1`, the minimal inhibitory concentration (MIC) amounted to 300 µg/mL (≈ 715 µM) with Escherichia coli; 150 µg/mL (≈ 358 µM) in the assay with Staphylococcus aureus; 10000 µg/mL (≈ 23800 µM) against Candida albicans; 625 µg/mL (≈ 1490 µM) against Bacillus subtilis; 1250 µg/mL (≈ 2980 µM) against Pseudomonas aeruginosa; 5000 µg/mL (≈ 11900 µM) in the assay with Nakaseomyces glabratus. Further, the inhibition in assay [1] is 74.2%.
In the case of `O=C(CC(=O)c1cc(Cl)c(O[C@@H]2O[C@H](CO)[C@@H](O)[C@H](O)[C@H]2O)cc1O)c1ccccn1`, the MIC came out at 19 µg/mL (≈ 41.9 µM) with Escherichia coli; 150 µg/mL (≈ 331 µM) in the assay on Staphylococcus aureus; 150 µg/mL (≈ 331 µM) in the assay with Candida albicans; 1250 µg/mL (≈ 2750 µM) against Bacillus subtilis; 19 µg/mL (≈ 41.9 µM) with Pseudomonas aeruginosa; 2500 µg/mL (≈ 5510 µM) against Nakaseomyces glabratus. Also, the inhibition in assay [1] worked out at 85.5%.
